Measurements taken from article PMC4065883 (European journal of medicinal chemistry, 2014).
“Also recorded” adds a separate entry of the source. Like-named read-outs stand apart in the source and are kept apart here.

Key:
[1] = biological target: T1, Acetylcholinesterase from bovine erythrocytes (Bos taurus, UniProt P23795); assay type: biochemical
T1 sequence (P23795 31-614 isoform P23795-2 limits assumed): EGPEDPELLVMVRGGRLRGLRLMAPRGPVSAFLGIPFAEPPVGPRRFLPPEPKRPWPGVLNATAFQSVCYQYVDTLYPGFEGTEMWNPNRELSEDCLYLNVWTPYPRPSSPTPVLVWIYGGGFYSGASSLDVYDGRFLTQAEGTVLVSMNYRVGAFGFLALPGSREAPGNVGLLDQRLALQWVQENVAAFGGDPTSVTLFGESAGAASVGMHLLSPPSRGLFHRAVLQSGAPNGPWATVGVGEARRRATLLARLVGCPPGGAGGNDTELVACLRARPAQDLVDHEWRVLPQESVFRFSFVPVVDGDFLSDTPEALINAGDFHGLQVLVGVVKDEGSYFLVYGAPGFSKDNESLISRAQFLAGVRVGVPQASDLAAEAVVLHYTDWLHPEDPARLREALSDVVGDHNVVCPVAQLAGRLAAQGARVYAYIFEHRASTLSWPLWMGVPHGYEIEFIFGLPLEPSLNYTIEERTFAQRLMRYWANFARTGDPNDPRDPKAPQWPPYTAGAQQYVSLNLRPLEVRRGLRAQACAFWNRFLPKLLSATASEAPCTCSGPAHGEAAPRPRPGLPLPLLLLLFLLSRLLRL

Peroxyl = settings: compound 1 mM, BMPO 10 mM
MC65 cells = settings: MTT
[2] = Hydroxyl radical scavenging, BMPO spin trap EPR; settings: compound 1 mM, BMPO 10 mM
[3] = ROS scavenging activity, radical type not specified, BMPO spin trap EPR; settings: compound 1 mM, BMPO 10 mM

SMILES	AChEI activity (in words) [1]	peroxyl / superoxide radical scavenging activity (in words) (Peroxyl)	protection against Aβ-induced cytotoxicity (in words) (MC65 cells)	hydroxyl radical scavenging activity (in words) [2]	ROS scavenging activity (in words) [3]	protection against Aβ-induced cytotoxicity (in words) (MC65 cells; listed as 9)	peroxyl / superoxide radical scavenging activity (in words) (Peroxyl; listed as 20)
CC1(C)Cc2nc3ccccc3c(N)c2C(C)(C)N1 [16b, 1,1,3,3-tetramethyl-1,2,3,4-tetrahydrobenzo[b][1,6]naphthyridin-10-amine]	inactive	lack peroxyl radical scavenging activity	notable protective activity; also recorded: lower protective activity	–	–	–	–
Nc1c2c(nc3ccccc13)CCCC2 [1b, 9-amino-1,2,3,4-tetrahydroacridine, reference compound]	–	limited; also recorded: lack peroxyl radical scavenging activity	–	limited	no significant effect on the level of radical detected	–	–
CC1(C)C=C(CNc2c3c(nc4ccccc24)CCCC3)CC(C)(C)N1[O] [compound 5, 2,2,6,6-Tetramethyl-4-[(1,2,3,4-tetrahydroacridin-9-yl)aminomethyl]-1,2,3,6-tetrahydropyridin-1-yloxyl Radical]	less AChEI activity than compound 1b	excellent	protection against Aβ-induced cytotoxicity	–	remarkable ROS scavenging activity	–	–
CC1(C)Cc2nc3ccccc3c(N)c2C(C)(C)N1[O] [17b, 10-amino-1,1,3,3-tetramethyl-3,4-dihydrobenzo[b][1,6]naphthyridin-2(1H)-yloxyl Radical]	–	excellent	notable protective activity	superior	–	–	–
c1ccc2c(N3CCNCC3)c3c(nc2c1)CCCC3 [compound 7, 9-(Piperazin-1-yl)-1,2,3,4-tetrahydroacridine]	–	limited; also recorded: lack peroxyl radical scavenging activity	do not provide any significant level of cell protection	limited	–	–	–
CN1CCc2nc3ccccc3c(N)c2C1 [22b, 2-methyl-1,2,3,4-tetrahydrobenzo[b][1,6]naphthyridin-10-amine]	–	lack peroxyl radical scavenging activity	notable protective activity	–	–	–	–
CC1(C)CC(n2cc(CN3CCN(c4c5c(nc6ccccc46)CCCC5)CC3)nn2)CC(C)(C)N1[O] [compound 12, 2,2,6,6-Tetramethyl-4-{4-[4-(1,2,3,4-tetrahydroacridin-9-yl)piperazin-1-ylmethyl]-1H-1,2,3-triazol-1-yl}piperidin-1-yloxyl Radical]	less AChEI activity than compound 1b; also recorded: active; also recorded: most efficient AChE inhibitors	excellent	protection against Aβ-induced cytotoxicity; also recorded: remarkable cell protection	–	remarkable ROS scavenging activity; also recorded: most efficient	–	–
CC1(C)C=C(CN2CCN(c3c4c(nc5ccccc35)CCCC4)CC2)C(C)(C)N1[O] [9b, 2,2,5,5-Tetramethyl-3-[4-(1,2,3,4-tetrahydroacridin-9-yl)piperazin-1-ylmethyl]-2,5-dihydro-1H-pyrrol-1-yloxyl Radical]	less AChEI activity than compound 1b	excellent	protection against Aβ-induced cytotoxicity	–	remarkable ROS scavenging activity	remarkable cell protection	–
CN1C(C)(C)Cc2nc3ccccc3c(N)c2C1(C)C [24b, 1,1,2,3,3-pentamethyl-1,2,3,4-tetrahydrobenzo[b][1,6]naphthyridin-10-amine]	limited AChEI activity	lack peroxyl radical scavenging activity	notable protective activity	–	–	–	–
CC1(C)NC(C)(C)c2c1nc1ccccc1c2N [19b, 1,1,3,3-tetramethyl-2,3-dihydro-1H-pyrrolo[3,4-b]quinolin-9-amine]	–	–	notable protective activity; also recorded: lower protective activity	–	–	–	–
C#CCN1CCN(c2c3c(nc4ccccc24)CCCC3)CC1 [compound 10, 9-[4-(prop-2-yn-1-yl)piperazin-1-yl]-1,2,3,4-tetrahydroacridine]	less AChEI activity than compound 1b	limited; also recorded: lack peroxyl radical scavenging activity	do not provide any significant level of cell protection	limited	–	–	–
Cl.Nc1c2c(nc3ccccc13)CCCC2 [1/HCl, reference compound]	–	limited	do not exhibit any protection	limited	–	–	–
CC1(C)c2nc3ccccc3c(N)c2C(C)(C)N1[O] [20b, 9-amino-1,1,3,3-tetramethyl-1H-pyrrolo[3,4-b]quinolin-2(3H)-yloxyl Radical]	–	lack peroxyl radical scavenging activity	notable protective activity	–	–	–	excellent
CC1(C)C=C(CNc2c3c(nc4ccccc24)CCCC3)C(C)(C)N1[O] [4b, 2,2,5,5-Tetramethyl-3-[(1,2,3,4-tetrahydroacridin-9-yl)aminomethyl]-2,5-dihydro-1H-pyrrol-1-yloxyl Radical]	less AChEI activity than compound 1b	excellent	protection against Aβ-induced cytotoxicity	–	remarkable ROS scavenging activity	–	–
COc1ccc(CN2CCN(c3c4c(nc5ccccc35)CCCC4)CC2)c(OC)c1OC [compound 13, 9-[4-(2,3,4-trimethoxybenzyl)piperazin-1-yl]-1,2,3,4-tetrahydroacridine]	–	lack peroxyl radical scavenging activity	notable protective activity	–	appreciable scavenging activity; also recorded: notable antioxidant activity	–	–
